Patent publication US7202260B2, “VEGFR-2 and VEGFR-3 inhibitory anthranilamide pyridones” (Schering AG, priority 2003, dated 2007)
Like-named read-outs stand apart in the source and are kept apart here.

What was measured:
[1] = target: T1, Cytochrome P450 isoenzyme 3A4 (Homo sapiens, UniProt P08684); assay: Cytochrome P450 inhibition (Crespi et al.); type: in vitro ADME; settings: baculovirus/insect cell-expressed human isoenzyme 3A4
T1 construct: host or cells: baculovirus/insect cells
Protocol: Cytochrome P450 Inhibition
The Cytochrome P450 inhibition was performed according to the publication of Crespi et al. (Anal. Biochem., 248, 188–190 (1997)) with use of the baculovirus/insect cell-expressed and human Cytochrome P450 isoenzyme (3A4).

VEGFR II (KDR) = VEGFR II (KDR) (Homo sapiens, UniProt P35968); assay: Inhibition of the KDR kinase activity (33P-ATP, poly-(Glu4Tyr) filter assay); type: biochemical
VEGFR II (KDR), sequence (P35968 20-1356, species assumed): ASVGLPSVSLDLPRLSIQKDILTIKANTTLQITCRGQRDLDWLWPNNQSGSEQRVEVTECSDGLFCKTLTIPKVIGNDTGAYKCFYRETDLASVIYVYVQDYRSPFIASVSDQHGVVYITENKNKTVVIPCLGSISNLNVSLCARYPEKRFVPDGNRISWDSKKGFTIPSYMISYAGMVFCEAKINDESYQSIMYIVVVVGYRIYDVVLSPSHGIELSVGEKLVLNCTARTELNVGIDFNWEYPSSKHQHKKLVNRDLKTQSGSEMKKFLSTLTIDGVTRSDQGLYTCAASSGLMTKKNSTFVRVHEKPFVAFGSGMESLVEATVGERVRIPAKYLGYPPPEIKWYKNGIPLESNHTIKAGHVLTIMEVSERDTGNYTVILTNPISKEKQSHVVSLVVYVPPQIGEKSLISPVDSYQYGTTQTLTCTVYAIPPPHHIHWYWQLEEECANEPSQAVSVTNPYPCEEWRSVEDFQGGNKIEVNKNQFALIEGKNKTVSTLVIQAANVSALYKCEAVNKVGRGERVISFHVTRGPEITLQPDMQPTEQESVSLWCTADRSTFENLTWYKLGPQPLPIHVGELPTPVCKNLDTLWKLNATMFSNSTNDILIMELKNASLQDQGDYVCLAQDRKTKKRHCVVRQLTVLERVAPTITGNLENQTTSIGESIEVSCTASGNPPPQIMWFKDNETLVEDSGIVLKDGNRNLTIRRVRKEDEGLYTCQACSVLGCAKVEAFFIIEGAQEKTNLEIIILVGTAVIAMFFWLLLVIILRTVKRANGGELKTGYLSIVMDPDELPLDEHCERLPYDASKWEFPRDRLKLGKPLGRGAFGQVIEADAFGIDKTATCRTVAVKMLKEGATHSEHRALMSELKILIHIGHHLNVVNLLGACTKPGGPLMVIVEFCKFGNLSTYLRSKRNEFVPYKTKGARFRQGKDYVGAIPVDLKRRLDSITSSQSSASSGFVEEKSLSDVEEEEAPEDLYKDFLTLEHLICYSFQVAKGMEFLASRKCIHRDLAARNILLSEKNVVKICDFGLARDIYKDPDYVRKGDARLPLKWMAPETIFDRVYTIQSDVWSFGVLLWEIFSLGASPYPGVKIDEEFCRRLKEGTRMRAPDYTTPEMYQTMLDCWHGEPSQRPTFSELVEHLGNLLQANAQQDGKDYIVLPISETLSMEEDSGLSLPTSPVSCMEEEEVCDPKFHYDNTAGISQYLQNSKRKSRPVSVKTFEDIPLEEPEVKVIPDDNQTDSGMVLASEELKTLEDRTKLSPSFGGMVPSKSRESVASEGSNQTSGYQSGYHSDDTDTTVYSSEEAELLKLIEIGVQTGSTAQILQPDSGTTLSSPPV
Protocol: • Stock Solutions • Stock solution A: 3 mmol of ATP in water, pH 7.0 (−70° C.) • Stock solution B: g-33P-ATP 1 mCi/100 μl • Stock solution C: poly-(Glu4Tyr) 10 mg/ml in water • Solution for Dilutions • Substrate solvent: 10 mmol of DTT, 10 mmol of manganese chloride, 100 mmol of magnesium chloride • Enzyme solution: 120 mmol of tris/HCl, pH 7.5, 10 μM of sodium vanadium oxide Sample Application 1 Inhibition of the KDR- and FLT-1 Kinase Activity in the Presence of the Compounds According to the Invention
In a microtiter plate (without protein binding) that tapers to a point, 10 μl of substrate mix (10 μl of volume of ATP stock solution A+25 μCi of g-33P-ATP (about 2.5 μl of stock solution B)+30 μl of poly-(Glu4Tyr) stock solution C+1.21 ml of substrate solvent), 10 μl of inhibitor solution (substances corresponding to the dilutions, 3% DMSO in substrate solvent as a control) and 10 μl of enzyme solution (11.25 μg of enzyme stock solution (KDR, FLT-1 or FLT-4 kinase) are added at 4° C. in 1.25 ml of enzyme solution (dilute). It is thoroughly mixed and incubated for 10 minutes at room temperature. Then, 10 μl of stop solution (250 mmol of EDTA, pH 7.0) is added, mixed, and 10 μl of the solution is transferred to a P 81 phosphocellulose filter. […] The filter paper is dried, coated with Meltilex, and measured in a microbeta counter. […]

T1 sequence (P08684 whole entry): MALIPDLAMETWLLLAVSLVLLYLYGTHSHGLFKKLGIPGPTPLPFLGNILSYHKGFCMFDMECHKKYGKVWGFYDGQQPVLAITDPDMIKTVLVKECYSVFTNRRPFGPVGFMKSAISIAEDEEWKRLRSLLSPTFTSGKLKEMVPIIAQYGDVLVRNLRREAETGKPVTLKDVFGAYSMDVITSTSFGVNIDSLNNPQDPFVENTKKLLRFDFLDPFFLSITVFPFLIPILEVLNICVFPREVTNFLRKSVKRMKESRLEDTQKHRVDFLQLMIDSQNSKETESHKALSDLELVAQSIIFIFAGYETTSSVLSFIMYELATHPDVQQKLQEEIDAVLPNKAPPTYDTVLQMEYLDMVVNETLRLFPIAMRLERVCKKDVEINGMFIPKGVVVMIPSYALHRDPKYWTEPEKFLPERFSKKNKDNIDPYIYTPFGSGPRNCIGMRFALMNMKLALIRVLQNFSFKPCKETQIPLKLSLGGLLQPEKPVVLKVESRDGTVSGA

| Structure (SMILES) | IC50 ([1]; read-out: Inhibition of Cyp 450 3A4 (IC50)) [µM] | IC50 (VEGFR II (KDR)) [µM] | IC50 ([1]; heading: Inhibition of Cyp 450 3A4) [µM] |
| --- | --- | --- | --- |
| O=C(Nc1ccc(OC(F)(F)F)cc1)c1ccccc1NCc1ccc(=O)[nH]c1 [Example 1.0, 2-[(6-Oxo-1,6-dihydro-pyridin-3-ylmethyl)-amino]-N-(4-trifluoromethoxy-phenyl)-benzamide] | 5.6 | 0.056 |  |
| O=C(Nc1ccc(OCC(F)(F)F)cc1)c1ccccc1NCc1ccc(=O)[nH]c1 [Example 1.5] |  | 0.059 | 11 |
